# Laboratory results as given in ChEMBL document CHEMBL3351448, “Discovery of (7-aryl-1,5-naphthyridin-2-yl)ureas as dual inhibitors of ERK2 and Aurora B kinases with antiproliferative activity against cancer cells” (Bioorg Med Chem Lett, 2014).
# Assays:
# [1] = target: Mitogen-activated protein kinase 1 (Homo sapiens, UniProt P28482); assay: Inhibition of ERK2 (unknown origin)
# [2] = target: Vascular endothelial growth factor receptor 2 (Homo sapiens, UniProt P35968); assay: Inhibition of KDR (unknown origin)
# Vascular endothelial growth factor receptor 2, sequence (P35968 whole entry): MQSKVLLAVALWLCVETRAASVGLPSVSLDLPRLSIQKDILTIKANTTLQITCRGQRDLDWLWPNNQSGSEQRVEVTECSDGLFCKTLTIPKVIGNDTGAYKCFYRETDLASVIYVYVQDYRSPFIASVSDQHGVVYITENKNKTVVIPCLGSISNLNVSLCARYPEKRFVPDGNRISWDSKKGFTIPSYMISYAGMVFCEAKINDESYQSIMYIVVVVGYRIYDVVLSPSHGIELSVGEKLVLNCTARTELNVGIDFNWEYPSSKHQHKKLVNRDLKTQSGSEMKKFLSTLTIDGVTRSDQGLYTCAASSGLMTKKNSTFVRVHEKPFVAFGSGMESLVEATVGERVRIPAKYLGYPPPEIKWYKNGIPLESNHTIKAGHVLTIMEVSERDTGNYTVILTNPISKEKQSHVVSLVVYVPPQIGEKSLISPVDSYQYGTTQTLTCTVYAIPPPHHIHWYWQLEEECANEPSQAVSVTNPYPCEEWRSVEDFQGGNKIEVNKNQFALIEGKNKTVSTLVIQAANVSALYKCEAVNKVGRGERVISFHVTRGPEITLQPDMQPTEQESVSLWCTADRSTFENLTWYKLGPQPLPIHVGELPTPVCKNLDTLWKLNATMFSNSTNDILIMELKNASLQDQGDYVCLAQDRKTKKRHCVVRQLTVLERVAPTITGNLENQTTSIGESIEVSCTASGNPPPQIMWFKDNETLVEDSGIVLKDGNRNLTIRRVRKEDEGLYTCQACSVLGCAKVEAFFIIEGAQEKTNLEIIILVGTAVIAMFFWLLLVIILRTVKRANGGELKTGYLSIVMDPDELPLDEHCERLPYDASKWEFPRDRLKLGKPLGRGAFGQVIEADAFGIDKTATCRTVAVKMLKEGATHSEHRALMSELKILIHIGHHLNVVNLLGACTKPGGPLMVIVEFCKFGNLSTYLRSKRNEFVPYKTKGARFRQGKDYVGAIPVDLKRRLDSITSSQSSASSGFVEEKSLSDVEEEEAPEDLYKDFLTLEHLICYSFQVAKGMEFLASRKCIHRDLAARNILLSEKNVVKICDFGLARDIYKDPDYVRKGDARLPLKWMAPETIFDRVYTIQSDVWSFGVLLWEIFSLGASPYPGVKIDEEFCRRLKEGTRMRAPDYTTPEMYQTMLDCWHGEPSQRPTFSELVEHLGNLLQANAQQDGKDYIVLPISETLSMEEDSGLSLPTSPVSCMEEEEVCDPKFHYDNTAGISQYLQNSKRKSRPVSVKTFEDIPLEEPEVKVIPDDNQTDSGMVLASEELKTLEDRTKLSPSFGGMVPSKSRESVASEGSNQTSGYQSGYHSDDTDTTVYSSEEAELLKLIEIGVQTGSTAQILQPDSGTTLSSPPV
# [3] = target: High affinity nerve growth factor receptor (Homo sapiens, UniProt P04629); assay: Inhibition of TrkA (unknown origin)
# High affinity nerve growth factor receptor, sequence (P04629 whole entry): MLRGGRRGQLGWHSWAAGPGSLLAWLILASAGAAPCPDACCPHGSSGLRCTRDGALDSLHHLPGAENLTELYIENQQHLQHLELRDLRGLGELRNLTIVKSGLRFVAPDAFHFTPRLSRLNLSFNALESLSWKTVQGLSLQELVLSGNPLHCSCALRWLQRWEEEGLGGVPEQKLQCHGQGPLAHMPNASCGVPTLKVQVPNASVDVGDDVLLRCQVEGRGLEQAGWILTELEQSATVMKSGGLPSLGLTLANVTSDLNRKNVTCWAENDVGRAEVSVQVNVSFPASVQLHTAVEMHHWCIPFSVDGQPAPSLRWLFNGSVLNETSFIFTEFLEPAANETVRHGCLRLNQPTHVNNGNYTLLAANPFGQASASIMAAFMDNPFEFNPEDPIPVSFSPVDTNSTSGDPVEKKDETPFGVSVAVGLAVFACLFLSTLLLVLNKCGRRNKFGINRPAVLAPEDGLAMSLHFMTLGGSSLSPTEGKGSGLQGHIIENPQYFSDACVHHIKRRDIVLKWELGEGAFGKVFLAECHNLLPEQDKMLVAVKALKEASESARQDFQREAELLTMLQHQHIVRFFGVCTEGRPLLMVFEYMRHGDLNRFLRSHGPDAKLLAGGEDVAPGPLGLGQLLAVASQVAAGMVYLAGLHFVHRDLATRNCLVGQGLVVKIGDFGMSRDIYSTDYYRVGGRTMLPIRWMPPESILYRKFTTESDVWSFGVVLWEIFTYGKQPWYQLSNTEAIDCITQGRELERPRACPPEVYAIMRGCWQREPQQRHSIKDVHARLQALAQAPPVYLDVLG
# [4] = Chromatographic hydrophobicity index, CHI of the compound by RP-HPLC method; assay type: physicochemical
# [5] = target: Tyrosine-protein kinase Yes (Homo sapiens, UniProt P07947); assay: Inhibition of YES (unknown origin)
# Tyrosine-protein kinase Yes, sequence (P07947 whole entry): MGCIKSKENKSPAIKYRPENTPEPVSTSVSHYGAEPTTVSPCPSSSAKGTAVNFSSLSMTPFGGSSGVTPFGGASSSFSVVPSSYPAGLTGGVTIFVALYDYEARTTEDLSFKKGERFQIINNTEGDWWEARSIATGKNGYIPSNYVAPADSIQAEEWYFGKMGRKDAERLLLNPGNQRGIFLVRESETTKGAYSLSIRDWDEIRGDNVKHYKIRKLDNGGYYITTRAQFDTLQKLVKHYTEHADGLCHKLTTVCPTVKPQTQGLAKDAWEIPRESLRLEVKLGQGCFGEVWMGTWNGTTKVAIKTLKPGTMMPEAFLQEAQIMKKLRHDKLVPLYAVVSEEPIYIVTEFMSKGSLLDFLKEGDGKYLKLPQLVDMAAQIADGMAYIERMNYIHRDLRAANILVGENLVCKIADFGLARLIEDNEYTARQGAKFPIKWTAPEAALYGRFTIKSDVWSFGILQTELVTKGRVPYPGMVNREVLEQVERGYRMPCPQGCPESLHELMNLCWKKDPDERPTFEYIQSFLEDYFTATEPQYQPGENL
# [6] = Antiproliferative activity against human HCT116 cells; assay type: functional, cell-based; settings: HCT-116
# [7] = Lipophilicity, logD of the compound at pH 7.4 by RP-HPLC method based chromatographic hydrophobicity index determination; assay type: physicochemical; settings: buffer
# [8] = target: Homeodomain-interacting protein kinase 1 (Homo sapiens, UniProt Q86Z02); assay: Inhibition of HIPK1 (unknown origin)
# [9] = Antiproliferative activity against human PC3 cells; assay type: functional, cell-based; settings: PC-3
# [10] = target: Serine/threonine-protein kinase pim-1 (Homo sapiens, UniProt P11309); assay: Inhibition of PIM1 (unknown origin)
# Serine/threonine-protein kinase pim-1, sequence (P11309 whole entry): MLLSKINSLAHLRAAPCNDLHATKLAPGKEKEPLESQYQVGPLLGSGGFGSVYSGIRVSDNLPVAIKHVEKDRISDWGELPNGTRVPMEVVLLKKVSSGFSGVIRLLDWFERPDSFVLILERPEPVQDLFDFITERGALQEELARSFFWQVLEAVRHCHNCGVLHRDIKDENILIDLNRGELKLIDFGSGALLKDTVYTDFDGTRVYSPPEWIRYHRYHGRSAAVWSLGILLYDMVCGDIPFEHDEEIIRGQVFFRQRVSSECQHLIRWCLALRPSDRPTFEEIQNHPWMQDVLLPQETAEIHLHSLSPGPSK
# [11] = test system: A549; assay: Antiproliferative activity against human A549 cells; assay type: functional, cell-based
# [12] = Antiproliferative activity against human U87MG cells; assay type: functional, cell-based, U-87MG ATCC; settings: U-87 MG
# [13] = test system: MDA-MB-468; assay: Antiproliferative activity against human MDA-MB-468 cells; assay type: functional, cell-based
# [14] = target: Tyrosine-protein kinase ABL1 (Homo sapiens, UniProt P00519); assay: Inhibition of c-Abl (unknown origin)
# Tyrosine-protein kinase ABL1, sequence (P00519 whole entry): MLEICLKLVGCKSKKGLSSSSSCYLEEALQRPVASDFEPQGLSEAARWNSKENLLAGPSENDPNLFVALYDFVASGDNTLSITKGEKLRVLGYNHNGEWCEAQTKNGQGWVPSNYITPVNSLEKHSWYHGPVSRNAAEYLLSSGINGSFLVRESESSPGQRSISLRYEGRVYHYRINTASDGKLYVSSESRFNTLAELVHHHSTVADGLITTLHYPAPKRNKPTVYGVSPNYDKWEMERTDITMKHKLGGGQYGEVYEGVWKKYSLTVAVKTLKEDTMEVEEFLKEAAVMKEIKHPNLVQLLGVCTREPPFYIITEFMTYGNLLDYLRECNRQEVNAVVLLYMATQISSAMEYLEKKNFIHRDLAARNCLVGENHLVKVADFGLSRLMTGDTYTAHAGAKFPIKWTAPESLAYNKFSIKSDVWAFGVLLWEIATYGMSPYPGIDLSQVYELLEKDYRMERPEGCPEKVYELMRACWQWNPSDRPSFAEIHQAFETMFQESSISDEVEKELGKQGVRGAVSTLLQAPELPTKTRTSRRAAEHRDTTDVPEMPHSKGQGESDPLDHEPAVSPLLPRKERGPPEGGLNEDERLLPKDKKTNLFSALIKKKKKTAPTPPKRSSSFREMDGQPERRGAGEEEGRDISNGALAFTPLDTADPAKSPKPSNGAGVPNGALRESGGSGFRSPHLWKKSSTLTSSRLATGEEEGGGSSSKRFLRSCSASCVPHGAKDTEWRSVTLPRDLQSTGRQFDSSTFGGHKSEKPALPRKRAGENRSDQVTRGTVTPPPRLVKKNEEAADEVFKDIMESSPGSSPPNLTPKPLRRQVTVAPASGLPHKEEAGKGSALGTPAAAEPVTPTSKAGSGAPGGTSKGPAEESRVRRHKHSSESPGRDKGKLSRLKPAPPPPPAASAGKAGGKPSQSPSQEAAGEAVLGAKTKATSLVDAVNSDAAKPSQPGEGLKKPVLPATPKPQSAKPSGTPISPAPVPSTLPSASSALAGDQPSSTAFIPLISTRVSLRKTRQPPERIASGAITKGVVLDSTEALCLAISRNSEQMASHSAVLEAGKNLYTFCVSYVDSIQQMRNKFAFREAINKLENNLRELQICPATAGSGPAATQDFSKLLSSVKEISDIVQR
# [15] = Efflux ratio in human Caco2 cells in presence of 1% BSA; assay type: ADME, cell-based; settings: Caco-2
# [16] = Permeability from basolateral to apical side in human Caco2 cells in presence of 1% BSA; assay type: ADME, cell-based; settings: Caco-2, read-out: permeability
# [17] = target: Cytochrome P450 3A4 (Homo sapiens, UniProt P08684); assay: Inhibition of CYP3A4 (unknown origin); assay type: ADME
# Cytochrome P450 3A4, sequence (P08684 whole entry): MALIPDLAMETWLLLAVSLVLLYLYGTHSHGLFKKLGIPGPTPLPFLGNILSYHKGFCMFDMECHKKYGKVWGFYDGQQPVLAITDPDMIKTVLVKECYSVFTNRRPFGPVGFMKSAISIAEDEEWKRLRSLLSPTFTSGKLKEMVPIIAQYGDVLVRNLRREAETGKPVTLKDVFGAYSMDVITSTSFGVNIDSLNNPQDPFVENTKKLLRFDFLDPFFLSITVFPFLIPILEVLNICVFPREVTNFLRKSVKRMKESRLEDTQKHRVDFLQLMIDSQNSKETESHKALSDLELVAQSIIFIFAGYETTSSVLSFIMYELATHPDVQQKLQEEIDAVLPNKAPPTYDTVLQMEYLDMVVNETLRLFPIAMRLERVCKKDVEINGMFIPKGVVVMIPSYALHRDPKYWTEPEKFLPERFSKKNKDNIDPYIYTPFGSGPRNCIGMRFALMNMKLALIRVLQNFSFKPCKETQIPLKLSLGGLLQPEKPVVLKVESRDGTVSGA
# [18] = Solubility in PBS buffer at pH 7.4 in presence of 1% BSA; assay type: physicochemical; settings: PBS buffer with 1% BSA
# [19] = Stability in mouse plasma assessed as parent compound remaining after 6 hrs; assay type: ADME, cell-free; settings: read-out: Stability
# [20] = Permeability from apical to basolateral side in human Caco2 cells in presence of 1% BSA; assay type: ADME, cell-based; settings: Caco-2, read-out: permeability
# [21] = target: Voltage-gated inwardly rectifying potassium channel KCNH2 (Homo sapiens, UniProt Q12809); assay: Binding affinity to human ERG
# [22] = Stability in mouse liver microsomes assessed as parent compound remaining after 1 hr; assay type: ADME; settings: read-out: Stability
# Mitogen-activated protein kinase 1, sequence (P28482 whole entry): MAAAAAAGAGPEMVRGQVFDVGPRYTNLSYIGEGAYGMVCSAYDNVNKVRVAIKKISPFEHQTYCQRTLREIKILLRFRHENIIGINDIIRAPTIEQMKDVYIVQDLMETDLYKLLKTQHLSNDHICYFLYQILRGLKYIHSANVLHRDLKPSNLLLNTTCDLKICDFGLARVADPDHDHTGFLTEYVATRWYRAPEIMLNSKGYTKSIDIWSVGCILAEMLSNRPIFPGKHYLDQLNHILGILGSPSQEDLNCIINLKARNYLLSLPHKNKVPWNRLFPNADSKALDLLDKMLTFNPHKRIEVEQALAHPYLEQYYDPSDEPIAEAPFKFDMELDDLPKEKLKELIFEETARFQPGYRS
Compound,IC50 [2] [µM],IC50 [3] [µM],CHI [4],IC50 [5] [µM],chromatographic logD [7],IC50 [8] [µM],IC50 [10] [µM],IC50 [11] [µM],IC50 [13] [µM],IC50 [14] [µM],solubility [18] [µM],remaining at 1 h [22] [%],IC50 [6] [µM],IC50 [9] [µM],IC50 [12] [µM],also measured
Cn1cc(-c2cnc3c(NC(=O)NC(C)(C)C)ccnc3c2)cn1,,,,,,,,,,,,,,,,IC50 [1]: 31.6 µM
Cn1cc(-c2cnc3ccc(NC(=O)Nc4ccccc4)nc3c2)cn1,> 100,> 100,73.3,> 100,2.4,> 100,> 31.6,3.08,1.31,> 100,,,1.38,1.37,> 50,
CCNC(=O)Nc1ccc2ncc(-c3ccc(OC)cc3)cc2n1,> 100,> 100,,> 100,,> 100,37.1,> 50,> 50,20.8,,,15.9,> 50,> 50,
Cn1cc(-c2cnc3ccc(NC(=O)NCc4ccccc4)nc3c2)cn1,> 100,> 100,69.4,> 100,2.2,> 100,> 31.6,> 50,> 50,> 100,,,0.191,> 50,> 50,
COc1ccc(-c2cnc3ccc(NC(=O)NC(C)(C)C)nc3c2)cc1OC,> 100,> 100,88.8,85.5,3.2,> 100,> 100,> 50,> 50,> 100,8.5,70.4,> 50,> 50,> 50,

# More lines, main results first:
IC50 [2] [µM],IC50 [3] [µM],CHI [4],IC50 [5] [µM],chromatographic logD [7],IC50 [8] [µM],IC50 [10] [µM],IC50 [11] [µM],IC50 [13] [µM],IC50 [14] [µM],solubility [18] [µM],remaining at 1 h [22] [%],Compound,IC50 [6] [µM],IC50 [9] [µM],IC50 [12] [µM],also measured
> 100,4.5,76.1,7.95,2.5,> 100,> 100,1,1.96,6.05,,,Cn1cc(-c2cnc3ccc(NC(=O)NC(C)(C)C)nc3c2)cn1,0.651,0.671,> 50,
> 100,12.7,71.6,26.9,2.3,> 100,32.5,,1.8,> 100,3.9,81.1,Cn1cc(-c2cnc3ccc(NC(=O)NCCc4ccccc4)nc3c2)cn1,1.2,,> 50,efflux ratio [15]: 0.45; Papp B→A [16]: 29 ×10⁻⁶ cm/s; INH [17]: > 100 µM; remaining at 6 h [19]: 96.7%; Papp A→B [20]: 64 ×10⁻⁶ cm/s; INH [21]: > 60 µM
> 100,> 100,73.3,41.8,2.4,13.6,> 100,> 50,21.9,> 100,5.7,45.4,CCNC(=O)Nc1ccc2ncc(-c3ccc(OC)c(OC)c3)cc2n1,4.36,> 50,> 50,
> 100,80.6,79.3,42.9,2.7,> 100,> 100,14.2,3.89,> 100,,,COc1cc(-c2cnc3ccc(NC(=O)NC(C)(C)C)nc3c2)ccc1O,4.59,4.91,9.68,
